Laboratory results: patent US11465972B2, “Inhibitors of oxidized low-density lipoprotein receptor 1 and methods of use thereof” (United States Government as represented by the Department …, priority 2015, dated 2022)

Tests used:
macrophages = details: cited from earlier work
[1] = tested on: human primary aortic endothelial cells; experiment: ox-LDL uptake by human primary aortic endothelial cells (flow cytometry); type: cell-based; details: Endothelial cell, 0, 5, 50, 100, 250, 500 nM
Experimental: FIG. 7A depicts flow cytometry measurements using human primary aortic endothelial cells in the presence of 0, 5, 50 100, 250 and […] of Formula XVI. FIG. 7B depicts the percentage of internalized ox-LDL. The x-axis represents Formula XVI concentration (nM) and the y-axis represents ox-LDL uptake by ECs.
Ox-LDL uptake by human primary aortic endothelial cells was measured after exposure to 0, 5, 50, 100, 250 and 500 nM of the compound of Formula XVI (compound 13 in Table 3) using flow cytometry.

LOX-1 expression = details: cited from earlier work
[2] = molecular target: CHO cells expressing LOX-1 (Homo sapiens, UniProt P78380); details: only at high concentrations; cited from earlier work

## CCCCCCCCCCCCCCCCCC(=O)Nc1ccc(S(=O)(=O)O)c(NC(=O)CCCCCCCCCCCCCCCCC)c1 [2,4-bis(octadecanoylamino) benzenesulfonic acid]
macrophages
  LDL binding to macrophages: prevented LDL from binding to macrophages

## OC(COc1ccccc1)Cn1ccnc1I (stereo not shown) [Formula XVI]
[1]
  IC50: 26.7 nM

## CC(=O)Oc1ccccc1C(=O)O [aspirin]
LOX-1 expression
  ox-LDL mediated LOX-1 expression: reduce ox-LDL mediated LOX-1 expression

## procyanidins
[2]
  ox-LDL uptake in CHO cells expressing LOX-1: inhibited ox-LDL uptake
